According to ChEMBL document CHEMBL1201862, “PubChem BioAssay data set” (2004):
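Step 1: Grow cells in 96-well plates. Step 2: Expose to compound for 48 hours at 5 concentrations. Step 3: Interpolate endpoints linearly; if unreached, use highest concentration. Here, GI50 denotes the concentration required for 50% inhibition of growth.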 Active and inactive are the calls of the source. Cut-off read from the data, not from the text of the source: active = GI50 up to about 1.1 µM and inactive = higher.

What was measured:
Test in all cases: NCI anticancer screen, dose series, 48 h
786-0 = system: 786-0
CAKI-1 = system: CAKI-1
MCF7 = system: MCF7
SK-MEL-28 = system: SK-MEL-28
SK-OV-3 = system: SK-OV-3
HOP-92 = system: HOP-92
NCI-H522 = system: NCI-H522
NCI/ADR-RES = system: NCI/ADR-RES
RPMI-8226 = system: RPMI-8226
TK-10 = system: TK-10
A498 = system: A498
MDA-N = system: MDA-N
SK-MEL-2 = system: SK-MEL-2
UO-31 = system: UO-31
T47D = system: T47D
M14 = system: M14
OVCAR-5 = system: OVCAR-5
ACHN = system: ACHN
OVCAR-3 = system: OVCAR-3
HL-60 = system: HL-60

Measured: GI50

COC(=O)Nc1nc2cc(NC(=O)c3ccc(I)cc3)ccc2[nH]1
inactive: 786-0 > 100 µM | CAKI-1 > 100 µM | MCF7 > 100 µM | SK-MEL-28 > 100 µM | SK-OV-3 > 100 µM | HOP-92 > 100 µM | NCI-H522 24.7 µM | NCI/ADR-RES > 100 µM | RPMI-8226 > 100 µM | TK-10 > 100 µM | A498 > 100 µM | MDA-N > 100 µM | SK-MEL-2 > 100 µM | UO-31 > 100 µM | T47D > 100 µM | M14 > 100 µM | OVCAR-5 > 100 µM | ACHN > 100 µM | OVCAR-3 > 100 µM | HL-60 > 100 µM

Cc1ccc2c(c1)[nH]c(=S)n2C=C1C(=O)CC(C)(C)CC1=O
inactive: 786-0 > 100 µM | CAKI-1 > 100 µM | MCF7 > 100 µM | SK-MEL-28 > 100 µM | SK-OV-3 > 100 µM | HOP-92 > 100 µM | NCI-H522 > 100 µM | NCI/ADR-RES > 100 µM | TK-10 > 100 µM | A498 > 100 µM | MDA-N > 100 µM | SK-MEL-2 > 100 µM | UO-31 > 100 µM | T47D > 100 µM | M14 > 100 µM | OVCAR-5 > 100 µM | ACHN > 100 µM | OVCAR-3 > 100 µM | HL-60 > 100 µM

Cc1c(C#N)c2nnn(-c3ccc([N+](=O)[O-])cc3)c(=O)n2c1-c1ccccc1
inactive: 786-0 12.2 µM | CAKI-1 12.1 µM | MCF7 6.22 µM | SK-MEL-28 19.2 µM | SK-OV-3 24.3 µM | HOP-92 8.05 µM | NCI-H522 3.77 µM | NCI/ADR-RES 4.86 µM | RPMI-8226 3.13 µM | TK-10 20 µM | A498 5.64 µM | MDA-N 10.2 µM | SK-MEL-2 9.57 µM | UO-31 11.2 µM | T47D 3.49 µM | M14 11.4 µM | OVCAR-5 17.1 µM | ACHN 4.95 µM | OVCAR-3 3.03 µM | HL-60 14.7 µM

O=C(CCc1ccc(O)c(O)c1)c1ccc(O)c(O)c1O
inactive: 786-0 35.2 µM | CAKI-1 17.8 µM | MCF7 19.1 µM | SK-MEL-28 60.7 µM | SK-OV-3 52.2 µM | HOP-92 22.3 µM | NCI-H522 11.9 µM | NCI/ADR-RES 26.5 µM | TK-10 19 µM | A498 17.9 µM | MDA-N 15.3 µM | SK-MEL-2 58.7 µM | UO-31 52.4 µM | T47D 23.7 µM | M14 16.8 µM | OVCAR-5 21.2 µM | ACHN 14.3 µM | HL-60 11.5 µM

Oc1cnc2c(O)cccc2c1 [JINEOL]
inactive: 786-0 35.5 µM | MCF7 30.7 µM | SK-MEL-28 76.6 µM | SK-OV-3 32.6 µM | HOP-92 41 µM | NCI-H522 19.2 µM | NCI/ADR-RES 18.2 µM | RPMI-8226 38.1 µM | TK-10 53.1 µM | A498 > 100 µM | MDA-N 57.1 µM | SK-MEL-2 64.4 µM | UO-31 30.8 µM | T47D 29 µM | M14 24.5 µM | OVCAR-5 24.9 µM | ACHN 27.5 µM | OVCAR-3 20.6 µM | HL-60 31.5 µM
